We go through four molecules from publication PMC2630844, “Characterizing the Anti-HIV Activity of Papuamide A” (Marine Drugs, 2008).

The term Kd denotes a measure of binding affinity in units of concentration.

Experiment [1] relates to HIV-1NL4-3 (X4 tropic virus) entry into HeLa T4+ cells. The experiment in a line: Virion based fusion assay (BlaM-Vpr), X4 tropic virus. Conditions: n≥4. In kind it is cell-based.
The test system of experiment [2] is DHIV-3 pseudotype virus expressing X4 tropic envelope (IIINL4), CEM-SS cells. It is filed as cell-based, HIV. Conditions: duplicate determinations.
For experiment [3], the target named is T1, sCD4 (Homo sapiens, UniProt P01730).
T1 construct: Soluble CD4 (sCD4)
Kind of experiment: Surface plasmon resonance, papuamide A - sCD4. It is filed as binding. The method, then: (§1) The expected response at saturation is determined by the following formula: LCR/MWL×MWA , (LCR=Ligand capture response, amount of papuamide A captured onto the biosensor chip; MWL=molecular weight of ligand, papuamide A; and MWA=molecular weight of analyte, the protein or peptide.)[23–26] The observed response, determined by the BIAcore instrument detector in response units (RU), can be lower than the expected response if the concentration of analyte used is below the dissociation constant (KD) concentration value, KD values were calculated by the software from the binding responses obtained with multiple concentrations of analyte. When this is the case, the fold difference in concentration values (KD/concentration of analyte used) is approximately proportionate to the fold difference in responses (expected response/observe response). Therefore, to correct for the expected response at the maximum concentration tested, the expected response at saturation was divided by the fold difference in concentration values to determine the expected response at the maximum value tested.
(§2) Binding interactions were quantified by surface plasmon resonance (SPR). Studies were performed at the University of Utah Protein Interactions facility on a BIAcore 3000 instrument. Briefly, papuamide A was biotinylated using the EZ-Link Sulfo-NHS-LC-LC-Biotin reagent (Pierce Biotechnology, Rockford, IL) with reaction products purified by reverse phase high performance liquid chromatography (HPLC). Biotinylation was confirmed by mass spec and presumed to target the free amine of the 2,3-diaminobutenoic acid. Biotinylated papuamide A was captured onto a chip with a carboxymethylated dextran matrix preimmobilized with streptavidin. Analytes were then flowed over the chip in hepes buffered saline (HBS) running buffer containing 1 mg/mL bovine serum albumin to reduce nonspecific binding. […] Data analyzed using the SCRUBBER software, developed by the University of Utah Protein Interactions Facility.
For orientation: In SPR one partner is held on a chip, and binding of the other changes the refractive index at the surface.

For experiment [4], the system named is pseudotype virus expressing amphotropic murine leukemia virus (aMLV) envelope glycoprotein, CEM-SS cells. In kind it is cell-based. Particulars: 178 nM (Fig. 4; text 174nM); flow cytometry of GFP, 48 h; n≥3. A general note: A flow cytometer gives signals particle by particle.
Experiment [5] relates to NL4-3 BlaM-Vpr virus entry, HeLa T4 cells. Kind of experiment: Papuamide A preincubation in virion fusion assay. It is filed as cell-based, HIV-1. Particulars: 178 nM (Fig. 6a) or 710 nM (method), n≥3. The method, then: HeLa T4 cells were infected with NL4-3 BlaM virus and treated with 710 nM papuamide A, following these three protocols: Virus pretreated with papuamide A for 30 minutes at room temperature prior to dilution and addition to the cells; Cells pretreated with papuamide A for 2 hours followed by aspiration of papuamide A containing medium and addition of virus; Virus and papuamide A added to the cells at the same time.

For experiment [6], the system named is 20% phosphatidylserine / 80% phosphatidylcholine vesicles. The experiment in a line: Surface plasmon resonance, PS:PC vesicle binding. Conditions: 20% PS, 80% PC vesicles; data not shown. The method, then: (§3) Papuamide A’s ability to bind to phosphatidylserine was observed using surface plasmon resonance. Twenty percent phosphatidylserine and 80% phosphatidylcholine (PC) vesicles were tested alongside 100% PC vesicles. […] This indicates there is a preferential binding of papuamide A to phosphatidylserine. To determine if binding of PS alone was sufficient to inhibit viral entry, annexin V (AV) was tested in the virion based fusion assay.

Experiment [7] concerns pseudotype virus expressing JRFL (R5 tropic) envelope, CEM.NKR-CCR5 cells. In kind it is cell-based, HIV. Conditions: 178 nM (Fig. 4; text 174nM); flow cytometry of GFP, 48 h; n≥3.
Experiment [8] concerns pseudotype virus expressing LAI (X4 tropic) envelope, CEM-SS cells. In kind it is cell-based, HIV. Conditions: 178 nM (Fig. 4; text 174nM); flow cytometry of GFP, 48 h; n≥3.
In experiment [9] the test system is DHIV-3 pseudotype virus expressing IIINL4 envelope, CEM-SS cells. In kind it is cell-based, HIV. Particulars: papuamide A 178 nM with annexin V 0.1 μM; n=3.
In experiment [10] the target is gp120 (Human immunodeficiency virus type 1 group M subtype B, UniProt P03375). Kind of experiment: Surface plasmon resonance, papuamide A - gp120. It is filed as binding, HIV. Here is the method: as §1, §2
Experiment [11] deals with VSV-G pseudotype virus, CEM-SS cells. In kind it is cell-based, HIV pseudotyped with vesicular stomatitis virus envelope. Conditions: n≥3.
Experiment [12] in a line: Surface plasmon resonance, papuamide A - positive control peptide. It is filed as binding. The method, then: as §1
Binding interactions were quantified by surface plasmon resonance (SPR). Studies were performed at the University of Utah Protein Interactions facility on a BIAcore 3000 instrument. […] Data analyzed using the SCRUBBER software, developed by the University of Utah Protein Interactions Facility.

The subject of experiment [13] is pseudotype virus expressing vesicular stomatitis virus (VSV) envelope glycoprotein, CEM-SS cells. In kind it is cell-based, HIV pseudotyped with vesicular stomatitis virus envelope. Particulars: n≥3.
The subject of experiment [14] is viral infection of cells preincubated overnight. Kind of experiment: Overnight preincubation of cells with papuamide A. In kind it is cell-based, HIV. Particulars: data not shown.
The subject of experiment [15] is HIV-1NL(AD8) (R5 tropic virus) entry into TZM-bl cells. The experiment in a line: Virion based fusion assay (BlaM-Vpr), R5 tropic virus.
Description: Briefly, production of virus was accomplished by co-transfection of 20 μg of pMM310 (plasmid encoding β-lactamase linked to Vpr, BlaM-Vpr) [56],10 μg pAdVAntage (Invitrogen, Carlsbad, CA); and 60 μg pNL4-3(X4 tropic proviral DNA) [50] or pNL(AD8) (R5 tropic proviral DNA) [51] into 293FT cells using standard calcium phosphate transfection. Virus was collected after 48 hours and titered using the RETROtek p24 ELISA kit (ZeptoMatrix, Buffalo, NY). HeLaT4 or TZM-bl cells, 200μL at a concentration of 1 X 10^5 cells/mL, were plated into 96 well, black walled, flat bottom plates and placed in a 37°C, 5% CO2 humidified incubator overnight for attachment. Medium was aspirated and 200 μL of medium containing virus, at a predetermined p24 concentration of 200 ng/mL, was added with test compounds or vehicle. Cells were incubated at 37°C, 5% CO2 for 2 hours. Virus was aspirated off and cells rinsed twice with room temperature CO2 independent medium (Invitrogen, Carlsbad, CA). Cells were then loaded with CCF2-AM fluorescent substrate (Invitrogen, Carlsbad, CA) according to manufacturer’s protocol. Cells were incubated, protected from light, for 1 hour at room temperature and washed twice with room temperature CO2 independent medium. Next, 200 μL of room temperature CO2 independent medium supplemented with 10% FBS and 2.5mM probenecid (Sigma-Aldrich, St. Louis, MO) was added and the reaction was allowed to develop for 5–7 hours.
When fusion occurs, β-lactamase (BlaM) present in the virus cleaves the CCF2-AM substrate. This cleavage results in a change of the fluorescence emission from green to blue. Images of the cells were taken with a fluorescent microscope equipped with the appropriate filter set, Excitation filter 405±10 nm, Dicroic mirror 425, Emission Filter (blue) 460±20 nm, and Emission Filter (green) 530±15 nm. Using ImageJ, an image software program provided by NIH, the amount of green and blue fluorescence was determined. To quantify the observed fusion, a fluorescence ratio was calculated by dividing the amount of blue fluorescence by the amount of green fluorescence. This value was then normalized to the non-infected control by dividing the calculated values by the average control value.
In experiment [16] the test system is 100% phosphatidylcholine (PC) vesicles. Kind of experiment: Surface plasmon resonance, PC vesicle binding. Conditions: 100% PC vesicles; data not shown. The method, then: as §3
Experiment [17] has as its system pseudotype virus infection. It is filed as cell-based, HIV. Particulars: 174nM papuamide A; flow cytometry of GFP; data not shown.
The test system of experiment [18] is phosphatidylserine (PS) containing liposomes. Particulars: cited from earlier work. The source says:
(§4) Papuamide B only differs from papuamide A by one methyl group. […] PS is a phospholipid normally present on the inner leaflet of the cell membrane, but during apoptosis the regulation of PS is altered and PS is present on the outer leaflet.

In experiment [19] the test system is liposomes composed solely of phosphatidylcholine. Particulars: cited from earlier work.
Text: as §4

Experiment [20] relates to HIV infection of monocyte and macrophage. Conditions: binding of PS by Annexin V; cited from earlier work.
Text: as §4

For experiment [21], the system named is HIV T cell infection. Particulars: binding of PS by Annexin V; cited from earlier work.
Text: as §4

*1 amine or outer side, *2 acyl side, *3 side chain or, on linkers, in order; H or OH if unused. Where a SMILES comes first, the peptide text is derived from it. Bridges are numbered along the chain shown (N, C = ends). Side-chain parts run from the residue outwards. [ ]: non-standard residue; d: D form. The star is where a group is joined. Gln(3S,4R-Me2) = C[C@H]([C@H](N)C(=O)O)[C@@H](C)C(N)=O; dTyr(βR-OMe) = CO[C@H](c1ccc(O)cc1)[C@@H](N)C(=O)O; Biotin = O=C1N[C@H]2[C@H](CS[C@H]2CCCCC(=O)*)N1; X3 = CC(C)[C@@H](O[*:3])[C@H](N[*:1])C(=O)[*:2]; X1 = CCC(C)/C=C(C)/C=C\C(O)C(C)(O)C(=O)*; X2 = CC(N[*:3])[C@H](N[*:1])C(=O)[*:2]; NMeT = CN[C@H](C(=O)O)[C@@H](C)O; Pip = O=C(O)[C@@H]1CCCCN1; Ahx = NCCCCCC(=O)O

Take `Cc1cn([C@H]2C[C@H](N=[N+]=[N-])[C@@H](CO)O2)c(=O)[nH]c1=O` [AZT, azidothymidine]: the “inhibition of viral entry” value in [1] (AZT at 18 μM, fluorescence ratio) was “did not prevent viral entry”. In experiment [2] (C34 233 nM or AZT 3.7 μM added 1 hour after virus), the “effect of delayed addition, 1 hour” value is “no difference in activity”. In addition, the “effect of delayed addition, 2 hours” value in [2] (C34 233 nM or AZT 3.7 μM added 2 hours after virus) is “only a minor loss of activity”.
In the case of `CCC(C)/C=C(C)/C=C\C(O)C(C)(O)C(=O)NCC(=O)N[C@H](C(=O)N[C@H](C(=O)N[C@H](C(=O)N[C@@H]1C(=O)N[C@H](COC)C(=O)NCC(=O)N[C@@H](C)C(=O)N(C)[C@@H]([C@@H](C)O)C(=O)N[C@H]([C@H](OC)c2ccc(O)cc2)C(=O)N2CCCC[C@H]2C(=O)O[C@@H]1C(C)C)[C@@H](C)[C@@H](C)C(N)=O)C(C)NC(=O)CCCCCNC(=O)CCCCCNC(=O)CCCC[C@@H]1SC[C@@H]2NC(=O)N[C@@H]21)[C@@H](C)O` (stereo partly drawn) [papuamide A] (X1-GT[X2]([Ahx-Ahx-Biotin])[Gln(3S,4R-Me2)][X3][dS](Me)GA[NMeT][dTyr(βR-OMe)][Pip]; ester 5-C), the entries for the “observed response lower than calculated expected response” value in [3] (at maximum sCD4 concentration tested) and in experiment [10] (at maximum gp120 concentration tested) were 600 times lower and 54 times lower, respectively. Moreover, the “Fold Difference of Responses” value in [3] (expected response at saturation / observed response, sCD4) was 974; in experiment [10] (expected response at saturation / observed response, gp120), 1284. In addition, the “SPR binding response significance” value in [3] (sCD4) and in [10] (gp120) was “determined not to be significant” in each case. Moreover, the “inhibition of infection” value was “effectively inhibited infection” in experiment [4]; “inhibits infection” in experiment [7]; “inhibits infection” in experiment [8]; “effectively inhibited infection” in [13]; “approximately 50%” in [17]. Moreover, the “inhibition of viral entry” value in experiment [1] (710 nM papuamide A, 2 h infection, blue/green fluorescence ratio) was “approximately 80%”. The “inhibition of X4 and R5 virus entry, papuamide A alongside annexin V” value in [1] (Fig. 7a, X4 (NL4-3)) is “remained active”; in [15] (Fig. 7a, R5 (NL(AD8)), n≥4), “remained active”. Further, in experiment [5] (cells incubated with papuamide A 2 hours, removed, two washes, then infected), the “inhibition of viral entry after cell pretreatment” value is “did not result in inhibition of viral entry”. For the same molecule, in experiment [5] (virus pretreated 30 minutes then diluted), the “inhibition after virus pretreatment” value is “rate of inhibition similar to when papuamide A was added at the same time as virus”. Moreover, the “SPR vesicle binding” value in experiment [6] is reported as “exhibited binding to papuamide A”; in [16], “did not”. Besides, the “effect of papuamide A in presence of annexin V” value in experiment [9] is “unchanged in the presence of AV”. Besides, the “decreased infectivity, pretreated versus simultaneous addition” value in [11] (178 nM) is listed as “the same as that observed when papuamide A was added to cells at the same time as VSV-G pseudotype virus”. Moreover, in [11], the “decreased infectivity after virus pretreatment” value is reported as about 50%. Also, the “SPR interaction with positive control peptide” value in experiment [12] was “shown to interact with a positive control binding peptide”. In addition, the equilibrium dissociation constant (Kd) in experiment [12] (calculated by software from binding responses at multiple peptide concentrations, max 5 μM, biotinylated papuamide A captured on chip) is 176 µM. Moreover, in [14], the “inhibition of infection after overnight cell preincubation” value was “failed to inhibit viral infection”. For the same molecule, in experiment [15] (710-43.4 nM, n≥3), the “inhibition of R5 tropic virus entry” value is listed as “effectively inhibited the entry of the R5 tropic virus in a dose dependant manner”.
For papuamide B, the “binding to and leakage of liposomes” value was “bind to and cause leakage of phosphatidylserine (PS) containing liposomes” in [18]; “not those composed solely of phosphatidylcholine” in experiment [19]. In experiment [15] (710 nM, NL(AD8), n≥4), the “inhibition of viral entry” value is on record as “approximately 80%”.

B1: annexin V: a specific binder of PS (protein, UniProt P08758 2-320, looked up)
Annexin A5: AQVLRGTVTDFPGFDERADAETLRKAMKGLGTDEESILTLLTSRSNAQRQEISAAFKTLFGRDLLDDLKSELTGKFEKLIVALMKPSRLYDAYELKHALKGAGTNEKVLTEIIASRTPEELRAIKQVYEEEYGSSLEDDVVGDTSGYYQRMLVVLLQANRDPDAGIDEAQVEQDAQALFQAGELKWGTDEEKFITIFGTRSVSHLRKVFDKYMTISGFQIEETIDRETSGNLEQLLLAVVKSIRSIPAYLAETLYYAMKGAGTDDHTLIRVMVSRSEIDLFNIRKEFRKNFATSLYSMIKGDTSGDYKKALLLLCGEDD
B1: the “inhibition of X4 virus entry” value in experiment [1] (annexin V at concentrations similar to and higher than that shown to inhibit HIV infection, NL4-3) was “did not have any inhibitory effect”. Also, the “inhibition of infection” value in experiment [20] is “able to inhibit monocyte and macrophage infection”; in experiment [21], “not T cell infection”. In addition, in experiment [15] (annexin V at concentrations similar to and higher than that shown to inhibit HIV infection, NL(AD8), n≥4), the “inhibition of R5 virus entry” value is “did not have any inhibitory effect”.
